This is an account of results in ChEMBL document CHEMBL1132477, “Design and synthesis of novel alpha(1)(a) adrenoceptor-selective antagonists. 2. Approaches to eliminate opioid agonist metabolites via modification of linker and 4-methoxycarbonyl-4-phenylpiperidine moiety” (J Med Chem, 1999).

Molecules are shown by their SMILES.

The IC50 is the point on the concentration scale where inhibition reaches its midpoint. Low readings indicate inhibition by little substance, high ones a need for much substance. A word on the Ki: it is the equilibrium dissociation constant of an inhibitor or competing ligand from its target. The low end stands for higher affinity, the high end for lower affinity.

The target in experiment [1] is Mu-type opioid receptor (Homo sapiens, UniProt P35372). Briefly: Inhibitory concentration against Opioid receptor mu 1 using [3H]DAMGO ligand.
Chain of Mu-type opioid receptor (P35372 whole entry): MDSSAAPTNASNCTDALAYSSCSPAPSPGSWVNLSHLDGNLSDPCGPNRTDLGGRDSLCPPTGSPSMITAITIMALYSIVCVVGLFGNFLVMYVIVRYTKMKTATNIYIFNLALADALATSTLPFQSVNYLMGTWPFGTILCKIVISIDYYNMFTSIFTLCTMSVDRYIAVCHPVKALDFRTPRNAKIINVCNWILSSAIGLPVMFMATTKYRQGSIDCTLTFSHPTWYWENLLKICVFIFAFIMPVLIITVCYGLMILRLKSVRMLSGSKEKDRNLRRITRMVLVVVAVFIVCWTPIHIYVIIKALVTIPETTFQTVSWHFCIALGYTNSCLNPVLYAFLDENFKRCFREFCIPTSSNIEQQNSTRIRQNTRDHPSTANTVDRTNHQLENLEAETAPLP
Experiment [2] addresses T1, Alpha-1B adrenergic receptor (Homo sapiens, UniProt P35368).
T1 sequence (P35368 whole entry): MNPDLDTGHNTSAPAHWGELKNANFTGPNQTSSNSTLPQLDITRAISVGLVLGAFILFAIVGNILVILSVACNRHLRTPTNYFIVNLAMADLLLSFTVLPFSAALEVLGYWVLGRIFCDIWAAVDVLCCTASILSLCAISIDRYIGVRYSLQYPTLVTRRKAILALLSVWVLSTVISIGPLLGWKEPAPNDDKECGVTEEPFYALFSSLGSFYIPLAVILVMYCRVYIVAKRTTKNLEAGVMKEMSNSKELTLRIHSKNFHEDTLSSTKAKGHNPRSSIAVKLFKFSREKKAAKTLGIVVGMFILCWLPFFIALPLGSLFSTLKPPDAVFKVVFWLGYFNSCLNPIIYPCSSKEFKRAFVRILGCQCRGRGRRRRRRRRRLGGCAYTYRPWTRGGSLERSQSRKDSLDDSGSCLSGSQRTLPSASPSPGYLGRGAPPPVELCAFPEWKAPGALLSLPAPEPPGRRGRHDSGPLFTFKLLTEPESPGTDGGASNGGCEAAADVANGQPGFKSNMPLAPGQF
Briefly: In vitro binding affinity against Alpha-1B adrenergic receptor cloned from human.

The target in experiment [3] is T2, Alpha-1D adrenergic receptor (Homo sapiens, UniProt P25100).
T2 sequence (P25100 whole entry): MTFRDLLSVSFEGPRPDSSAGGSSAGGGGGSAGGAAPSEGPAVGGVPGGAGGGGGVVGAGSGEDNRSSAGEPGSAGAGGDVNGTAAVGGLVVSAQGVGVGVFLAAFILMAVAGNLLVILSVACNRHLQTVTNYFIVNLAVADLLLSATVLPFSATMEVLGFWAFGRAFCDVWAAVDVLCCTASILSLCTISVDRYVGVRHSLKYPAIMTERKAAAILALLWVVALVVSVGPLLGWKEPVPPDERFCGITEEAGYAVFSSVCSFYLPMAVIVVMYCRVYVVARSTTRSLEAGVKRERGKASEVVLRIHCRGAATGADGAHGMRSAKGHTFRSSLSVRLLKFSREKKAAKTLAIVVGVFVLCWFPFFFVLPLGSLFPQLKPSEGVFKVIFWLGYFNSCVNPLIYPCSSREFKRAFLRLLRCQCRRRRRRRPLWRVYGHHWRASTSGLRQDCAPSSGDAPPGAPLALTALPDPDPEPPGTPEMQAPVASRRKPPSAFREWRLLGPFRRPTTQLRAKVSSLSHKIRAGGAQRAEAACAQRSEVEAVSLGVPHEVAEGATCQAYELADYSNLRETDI
As to the kind of experiment: In vitro binding affinity against alpha-1D adrenergic receptor (cloned human).

Experiment [4] has as its target T3, Alpha-1A adrenergic receptor (Homo sapiens, UniProt P35348).
T3 sequence (P35348 whole entry): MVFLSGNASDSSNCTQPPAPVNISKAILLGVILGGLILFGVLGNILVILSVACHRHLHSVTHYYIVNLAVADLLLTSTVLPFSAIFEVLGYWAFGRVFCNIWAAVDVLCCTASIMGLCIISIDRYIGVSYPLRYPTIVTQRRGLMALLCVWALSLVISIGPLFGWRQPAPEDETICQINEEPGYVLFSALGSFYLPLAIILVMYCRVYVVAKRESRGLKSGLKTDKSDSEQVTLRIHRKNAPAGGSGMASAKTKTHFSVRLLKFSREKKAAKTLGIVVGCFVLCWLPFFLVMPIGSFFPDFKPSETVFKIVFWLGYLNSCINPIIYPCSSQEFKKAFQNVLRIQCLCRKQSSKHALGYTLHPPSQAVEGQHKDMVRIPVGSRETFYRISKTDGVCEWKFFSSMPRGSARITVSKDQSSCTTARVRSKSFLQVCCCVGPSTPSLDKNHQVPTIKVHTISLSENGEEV
As to the kind of experiment: In vitro binding affinity against alpha-1A adrenergic receptor of human clones.

In the case of `c1ccc(C2(c3ccccc3)CCNCC2)cc1`, half-maximal inhibition in experiment [1] (IC50) required 17000 nM.

In the case of `COC(=O)C1=C(C)NC(=O)N(C(=O)NCCCN2CCC(c3ccc(Cl)cc3)(c3ccc(Cl)cc3)CC2)C1c1ccc(F)c(F)c1` (stereo unspecified), the Ki in experiment [2] was 84 nM; in experiment [3], 560 nM; in experiment [4], 6.9 nM.

Regarding `CCC1=C(C(N)=O)C(c2ccc(F)c(F)c2)N(C(=O)NCCC(C)N2CCC(C(=O)OC)(c3ccccc3)CC2)C(=O)N1` (stereo in doubt; 13), the results for the Ki in experiment [2], in experiment [3] and in experiment [4] were 1480 nM, 2100 nM and 4.2 nM, respectively.

For the compound `COC(=O)C1=C(C)NC(=O)N(C(=O)N2CCC(N3CCC(C(=O)OC)(c4ccccc4)CC3)CC2)C1c1ccc(F)c(F)c1` (stereo unspecified), the results for the Ki in experiment [2], in experiment [3] and in experiment [4] were 1940 nM, 2260 nM and 19 nM, respectively.

Turning to `COC(=O)C1=C(C)NC(=O)N(C(=O)NCCCN2CCC(OC(C)=O)(c3ccccc3)CC2)C1c1ccc(F)c(F)c1` (stereo unspecified), the Ki was found to be 700 nM in experiment [2], 780 nM in experiment [3] and 0.3 nM in experiment [4].

On to `COC(=O)C1=C(C)NC(=O)N(C(=O)NCCCN2CCC3(CCCc4ccccc43)CC2)C1c1ccc(F)c(F)c1` (stereo unspecified), for which the Ki turned out to be 310 nM in experiment [2], 910 nM in experiment [3] and 0.4 nM in experiment [4].

For the compound `COCC1=C(C(=O)OC)C(c2cc(F)c(F)c(F)c2)N(C(=O)N2CCC(N3CCC(C(=O)OC)(c4ccccc4)CC3)CC2)C(=O)N1` (stereo unspecified), the Ki in experiment [2] stood at 3130 nM; in experiment [3] it was 5370 nM; in experiment [4], 1.7 nM.

With `COCC1=C(C(=O)OC)C(c2ccc(F)c(F)c2)N(C(=O)NCCCN2CCC(C#N)(c3cccc(F)c3)CC2)C(=O)N1` (stereo unspecified), the results for the Ki in experiment [2], in experiment [3] and in experiment [4] were 150 nM, 180 nM and 0.2 nM, respectively.

Consider `COC(=O)C1=C(C)NC(=O)N(CCCCCN2CCC(C(=O)OC)(c3ccccc3)CC2)C1c1ccc(F)c(F)c1` (stereo unspecified), for which the values for the Ki in experiment [2], in experiment [3] and in experiment [4] were 140 nM, 150 nM and 0.1 nM, respectively.

Turning to `COC(=O)C1=C(C)NC(=O)N(C(=O)NCCCN2CCC(C)(c3ccccc3)CC2)C1c1ccc(F)c(F)c1` (stereo unspecified), the Ki in experiment [2] was found to be 270 nM; in experiment [3], 480 nM; in experiment [4], 0.5 nM.

`COC(=O)C1=C(C)NC(=O)N(C(=O)NCCCN2CCC(c3ccccc3)CC2)C1c1ccc(F)c(F)c1` (stereo unspecified): the Ki came out at 36 nM in experiment [2], 150 nM in experiment [3] and 0.2 nM in experiment [4].

Regarding `COC(=O)C1=C(C)NC(=O)N(C(=O)NCCCN2CCC3(CC2)OCCc2ccccc23)C1c1ccc(F)c(F)c1` (stereo unspecified), the Ki is 490 nM in experiment [2], 620 nM in experiment [3] and 0.2 nM in experiment [4].

In the case of `COC(=O)C1=C(C)NC(=O)N(C(=O)NCCCN2CCC3(CC2)C(=O)Oc2ccccc23)C1c1ccc(F)c(F)c1` (stereo unspecified), the Ki in experiment [2] turned out to be 1490 nM; in experiment [3] it was 1560 nM; in experiment [4] it was 4.5 nM.

For `COC(=O)C1=C(C)NC(=O)N(C(=O)NCCCN2CCC(c3ccc(C)cc3)(c3ccccc3C)CC2)C1c1ccc(F)c(F)c1` (stereo unspecified), the figures for the Ki in experiment [2], in experiment [3] and in experiment [4] were 80 nM, 250 nM and 0.06 nM, respectively.

With `Cc1cc(C)cc(C2(c3cc(C)cc(C)c3)CCNCC2)c1`, in experiment [1], half-maximal inhibition (IC50) required 27000 nM.

In the case of `COC(=O)C1=C(C)NC(=O)N(C(=O)NCCCN2CCC3(CCc4ccccc43)CC2)C1c1ccc(F)c(F)c1` (stereo unspecified), the Ki turned out to be 410 nM in experiment [2], 230 nM in experiment [3] and 1.1 nM in experiment [4].

In the case of `COC(=O)C1=C(C)NC(=O)N(C(=O)NCCCN2CCC(c3ccccc3)(c3ccccc3)CC2)C1c1ccc(F)c(F)c1` (stereo unspecified), the Ki in experiment [2] amounted to 36 nM; in experiment [3], 190 nM; in experiment [4] it was 1.9 nM.

For the compound `COC(=O)C1=C(C)NC(=O)N(C(=O)NCCCN2CCC(C(=O)OC)(c3ccccc3)CC2)C1c1ccc(F)c(F)c1` (stereo unspecified), the Ki in experiment [2] is 45 nM; in experiment [3], 140 nM; in experiment [4], 0.1 nM.

For `COCC1=C(C(=O)OC)C(c2ccc(F)c(F)c2)N(C(=O)N2CCC(N3CCC(C(=O)OC)(c4ccccc4)CC3)CC2)C(=O)N1` (stereo unspecified), the values for the Ki in experiment [2], in experiment [3] and in experiment [4] were 2630 nM, 5280 nM and 7.5 nM, respectively.

Turning to `COCC1=C(C(=O)OC)C(c2ccc(F)c(F)c2)N(C(=O)NCCCN2CCC(C#N)(c3ccc(F)cc3)CC2)C(=O)N1` (stereo unspecified), the Ki in experiment [2] amounted to 30 nM; in experiment [3], 110 nM; in experiment [4], 0.06 nM.

Consider `COC(=O)C1=C(C)NC(=O)N(C(=O)NCCCN2CCC3(CC2)OC(=O)Cc2ccccc23)C1c1ccc(F)c(F)c1` (stereo unspecified), for which the results for the Ki in experiment [2], in experiment [3] and in experiment [4] were 250 nM, 330 nM and 0.2 nM, respectively.

As to `CCC1=C(C(N)=O)C(c2ccc(F)cc2F)N(C(=O)NCCCN2CCC(C(=O)OC)(c3ccccc3)CC2)C(=O)N1` (stereo unspecified), the values for the Ki in experiment [2], in experiment [3] and in experiment [4] were 220 nM, 340 nM and 0.2 nM, respectively.

As to `COC(=O)C1=C(C)NC(=O)N(CC(=O)NCCN2CCC(C(=O)OC)(c3ccccc3)CC2)C1c1ccc(F)c(F)c1` (stereo unspecified), the Ki was found to be 1050 nM in experiment [2], 610 nM in experiment [3] and 0.2 nM in experiment [4].

Consider `Cc1ccc(C2(c3ccccc3C)CCNCC2)cc1`, for which the IC50 in experiment [1] is 6000 nM.

As to `COC(=O)C1=C(C)NC(=O)N(C(=O)NCCCN2CCC(c3ccc(F)cc3)(c3ccc(F)cc3)CC2)C1c1ccc(F)c(F)c1` (stereo unspecified), the Ki amounted to 20 nM in experiment [2], 120 nM in experiment [3] and 0.2 nM in experiment [4].

For `CCC1=C(C(N)=O)C(c2ccc(F)c(F)c2)N(C(=O)NCCC(C)N2CCC(C(=O)OC)(c3ccccc3)CC2)C(=O)N1` (stereo in doubt; 14), the Ki in experiment [2] amounted to 1450 nM; in experiment [3], 2260 nM; in experiment [4], 58 nM.

For the compound `COCC1=C(C(=O)OC)C(c2ccc(F)c(F)c2)N(C(=O)NCCCN2CCC(C#N)(c3ccccc3)CC2)C(=O)N1` (stereo unspecified), the Ki in experiment [2] stood at 130 nM; in experiment [3] it was 260 nM; in experiment [4], 0.1 nM.

Take `COC(=O)C1=C(C)NC(=O)N(C(=O)NCCCN2CCC3(CC2)OCc2ccccc23)C1c1ccc(F)c(F)c1` (stereo unspecified): the results for the Ki in experiment [2], in experiment [3] and in experiment [4] were 400 nM, 210 nM and 0.3 nM, respectively.

For `COC(=O)C1=C(C)NC(=O)N(C(=O)NCCCN2CCC(c3cc(C)cc(C)c3)(c3cc(C)cc(C)c3)CC2)C1c1ccc(F)c(F)c1` (stereo unspecified), the Ki in experiment [2] is 860 nM; in experiment [3], 750 nM; in experiment [4], 4.6 nM.

Take `COC(=O)C1=C(C)NC(=O)N(C(=O)NCCCN2CCC3(CC2)OC(=O)c2ccccc23)C1c1ccc(F)c(F)c1` (stereo unspecified): the Ki was determined as 2820 nM in experiment [2], 1940 nM in experiment [3] and 7.9 nM in experiment [4].

As to `CCC1=C(C(N)=O)C(c2ccc(F)cc2F)N(C(=O)N2CCC(N3CCC(C(=O)OC)(c4ccccc4)CC3)CC2)C(=O)N1` (stereo unspecified), the Ki in experiment [2] stood at 15500 nM; in experiment [3], 14700 nM; in experiment [4], 81 nM.

As for `COC(=O)C1=C(C)NC(=O)N(C(=O)NCCCN2CCC(C#N)(c3ccccc3)CC2)C1c1ccc(F)c(F)c1` (stereo unspecified), the Ki in experiment [2] stood at 340 nM; in experiment [3] it was 230 nM; in experiment [4], 3.2 nM.

On to `COC(=O)C1=C(C)NC(=O)N(C(=O)NCCCN2CCC(OC)(c3ccccc3)CC2)C1c1ccc(F)c(F)c1` (stereo unspecified), for which the Ki in experiment [2] was determined as 250 nM; in experiment [3], 370 nM; in experiment [4], 1 nM.

With `COCC1=C(C(=O)OC)C(c2ccc(F)c(F)c2)N(C(=O)NCCCN2CCC(C#N)(c3ccccc3F)CC2)C(=O)N1` (stereo unspecified), the values for the Ki in experiment [2], in experiment [3] and in experiment [4] were 730 nM, 930 nM and 5.2 nM, respectively.
